{"source": "patent US20230330254A1", "about": "(Regeneron Pharmaceuticals, Inc., priority 2022, published 2023)", "key": {"[1]": {"test_system": "Salmonella typhimurium TA98 and TA100", "test": "Mini-Ames assay", "type": "cell-based", "description": "The objective of this Mini-Ames study was to evaluate the test article LP11, for its ability to induce reverse mutations in the genome of strains of Salmonella typhimurium TA98 and TA100 in the presence and absence of metabolic activation (S9 mixture).\nThe Mini-Ames assay was conducted for the test article in the presence and absence of the S9 mixture, concurrently with the negative/solvent control (DMSO) using six wells and positive controls (2 μg/well TA98 alone, 0.2 μg/well TA100 alone or 0.4 μg/well TA98+TA100 in the presence of S9) using three wells. The tested dose levels for the test article, in the presence and absence of S9 mix, were 1000, 400, 160, 64, 25, 10, 4, and 1.5 μg per well, with each dose tested in triplicate. The study was conducted using fresh cultures of the bacterial strains and fresh test article formulations."}, "[2]": {"test": "Plasma protein binding (equilibrium dialysis)", "type": "in vitro ADME, human", "description": "The pH value of the resulting plasma was checked\n(<http://www.htdialysis.com/>).\nDMSO working solutions were prepared at 400 μM. […] These samples were transferred into new 96-well plates."}, "[3]": {"test": "Plasma stability of payloads and linker-payloads, mouse plasma", "type": "in vitro ADME", "details": "mouse, pooled plasma", "description": "The plasma stability of payloads and linker payloads of the disclosure were measured. For the assay, pooled frozen plasma (human, mouse or monkey) was thawed in cold water or a 37° C. water bath prior to experiment. Plasma was centrifuged at 4000 rpm for 5 min if any clots were observed, they were subsequently removed. If required, the pH was adjusted to 7.4±0.1. For the preparation of compounds and positive controls, a 1 mM intermediate solution was prepared by diluting 10 μL of their stock solution with 90 μL DMSO; a 1 mM intermediate solution of the positive control (Propantheline) was prepared by diluting 10 μL of its stock solution with 90 μL ultrapure water. Subsequently, 100 μM dosing solution for each compound was prepared by diluting 20 μL of the intermediate solution (1 mM) with 180 μL 45% MeOH/H2O. 98 μL of plasma was spiked with 2 μL of dosing solution (100 μM) to achieve the final concentration of 2 μM in duplicate. Samples were then incubated at 37° C. in a water bath. […] At each time point, 400 μL of stop solution (200 ng/mL tolbutamide plus 200 ng/mL labetalol in 50% ACN/MeOH) was added to precipitate protein and mixed thoroughly. Sample plates were then centrifuged at 4,000 rpm for 10 min. An aliquot of supernatant (50 μL) was transferred from each well and mixed with 100 μL ultrapure water. The samples were then shaken at 800 rpm for approximately 10 min before submitting for LC-MS/MS analysis."}}, "note": "Read-outs that look alike come from different tables or passages of the source.", "data": [{"smiles": "CCc1cc(OCCCCn2cc(COCCOCCOCCOCCOCCOCCOCCOCCN)nn2)ccc1-c1ccc(C[C@H](NC(=O)[C@H](CC(=O)O)NC(=O)[C@H](CO)NC(=O)[C@@H](NC(=O)C(C)(Cc2ccccc2F)NC(=O)[C@@H](NC(=O)CNC(=O)[C@H](Cc2nn[nH]n2)NC(=O)C(C)(C)C(=O)NCCc2cnc[nH]2)[C@@H](C)O)[C@@H](C)O)C(=O)N[C@@H](CCCc2cc(C)cc(C)c2)C(N)=O)cc1", "note": "(stereo partly drawn) [LP11, NH2-PEG8-triazole-P8]", "values": [{"measurement": "fold increase in mean number of revertant colonies vs negative/solvent control", "setting": "[1]", "result": "≤ 2.0", "unit": "fold"}, {"measurement": "mutagenicity (Mini-Ames conclusion)", "setting": "[1]; TA98 and TA100, with and without S9", "result": "negative for mutagenicity"}, {"measurement": "Ames (TA98 and TA100) in the presence and absence of S9", "setting": "[1]; Table 5C", "result": "Negative for mutagenicity"}, {"measurement": "cytotoxicity in Mini-Ames", "setting": "[1]; any dose level (1.5-1000 μg per well), with or without S9 mix", "result": "no obvious cytotoxicity"}, {"measurement": "precipitates in Mini-Ames (naked eye after incubation)", "setting": "[1]; any dose level, with or without S9 mix", "result": "No obvious precipitates"}, {"measurement": "% Bound", "setting": "[2]; Human Plasma, 4 hours dialysis", "result": 97.97, "unit": "%"}, {"measurement": "% Unbound", "setting": "[2]; Human Plasma, 4 hours dialysis", "result": 2.03, "unit": "%"}, {"measurement": "recovery at 4 h, 2 µM", "setting": "[2]; Human Plasma, 4 hours dialysis", "result": 89.2, "unit": "%"}, {"measurement": "fraction unbound at 4 h, 2 µM", "setting": "[2]; human, plasma, Table 5C", "result": 0.0203}, {"measurement": "half-life at 2 µM", "setting": "[3]; pH 7.4, Mouse, assay time 3 days, Table 5B, read-out: plasma stability T½", "result": "> 144", "unit": "h"}, {"measurement": "half-life at 2 µM", "setting": "[3]; pH 7.4, Table 5A, mouse plasma, tested time C (3 days), read-out: plasma stability T½ (hr), mouse", "result": "> 173", "unit": "h"}, {"measurement": "half-life at 2 µM", "setting": "[3]; pH 7.4, Table 5C, read-out: Plasma Stability Mouse T½", "result": "> 168", "unit": "h"}]}]}
